This test relates to triple transgenic AD (3×Tg-AD) mouse model. Description: 2-DG diet in triple transgenic Alzheimer's mouse model. As to conditions: low-density gene array (LDA array) analyses. The test is classed as in vivo. As to the method:
It has been shown that mitochondrial bioenergetic deficits precede Alzheimer's disease (AD) pathology in the triple transgenic AD (3×Tg-AD) mouse model. […] In the current study, the impact of 2-deoxy-D-glucose (2-DG), a compound known to regulate glucose metabolism and induce ketogenesis, on both brain bioenergetics and AD pathology was evaluated.
3×Tg-AD female at 6 month were fed with either a regular diet (AIN-93G) or diet containing 0.04% 2-DG for 7 weeks.

For `OCC1OC(O)CC(O)C1O` [2-DG, 2-deoxy-D-glucose], the Tau phosphorylation entry is “reduced” and the amyloid production entry is given as “decreased”.

(Values after US20120238511A1, “2-DEOXY-D-GLUCOSE FORMULATIONS FOR PREVENTION OR TREATMENT OF NEURODEGENERATIVE DISEASES” (University of Southern California, priority 2011, published 2012).)
